These results are taken from patent publication US20230109839A1, “THERAPEUTIC AGENT FOR TAUOPATHIES” (SUMITOMO PHARMA CO., LTD., priority 2020, published 2023).

This assay deals with T1, human Nav1.1 (Homo sapiens, UniProt P35498).
T1 construct: host or cells: HEK293
The assay can be described thus: Amplification of Nav1.1-derived voltage-gated sodium current (Nav1.1 current), automated patch clamp (Test 1). The assay is classed as cell-based. As to conditions: HEK293, Concentration for evaluation 1 μM; HEK293 cell line stably expressing human Nav1.1; read-out: Nav1.1 current amplification rate (%). Summed up: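 Compound-induced change in ramp-evoked sodium current peak and AUC was expressed as 100×post/pre ratio minus 100. Recordings used automated patch clamp in voltage-clamp mode on a stable human Nav1.1 HEK293 line, including only cells above 500 pA. Compounds were delivered in extracellular fluid containing 1% DMSO.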
For orientation: In patch-clamp work, channel activity is measured electrically.

As to `CN(c1ncc2cnn(CC(=O)Nc3ccn4ncnc4c3)c2n1)C1CCCC1` [Example 795, 2-{6-[cyclopentyl(methyl)amino]-1H-pyrazolo[3,4-d]pyrimidin-1-yl}-N-([1,2,4]triazolo[1,5-a]pyridin-7-yl)acetamide], the activation at 1 µM is 111%.

Turning to `CC1CC=C(c2cnc3cnn(CC(=O)Nc4ccn5ncnc5c4)c3n2)CC1` (centres unmarked) [Example 577, 2-[6-(4-methylcyclohex-1-en-1-yl)-1H-pyrazolo[3,4-b]pyrazin-1-yl]-N-([1,2,4]triazolo[1,5-a]pyridin-7-yl)acetamide], the activation at 1 µM is 249%.
